# Experimental data: paper PMC9516243, “Design of stapled peptide-based PROTACs for MDM2/MDMX atypical degradation and tumor suppression” (Theranostics, 2022)
# pKi: −log10 of the molar value. Several values for one entry are separate records, joined by “and”; a condition that tells them apart may be missing. Equal values may be shown once.
# Assays:
# α-Chymotrypsin = assay: Proteolytic stability against chymotrypsin; type: in vitro ADME; conditions: chymotrypsin 5 ng/μl (10 μl) added to 1 ml of 1 mM peptide, PBS 50 mM pH 7.4, 2 mM CaCl2, 25°C, HPLC, within 10 min, read-out: peptide digested within 10 min
# Procedure: Peptides were dissolved in PBS (50 mM, pH = 7.4) to a final concentration of 1 mM. α-Chymotrypsin was dissolved in PBS (50 mM, containing 2 mM of CaCl2, pH = 7.4) to a final concentration of 5 ng/μl. Then the peptide solutions (1 ml) were incubated with […] (10 μl) at 25°C. Samples were taken at 0, 5, 30, 60, 90, and 120 min and reactions were quenched with 20 μL of hydrochloric acid (1 M). The solution of the trypsin peptide fragments was monitored by HPLC at different time points to determine the fraction of protease degradation.
# HCT116 p53^-/- cells = assay: Cell viability assay (CCK-8); type: cell-based, human; conditions: CCK-8, 72 h incubation, absorbance 450 nm; read-out: IC50 (μM) HCT116 p53^-/-
# Procedure: (§1) The human colon carcinoma cell line HCT116 p53^+/+ was obtained from the Cell Bank of the Chinese Academy of Sciences (Shanghai, China). HCT116 p53^-/- cells were generously provided by Prof. Vogelstein of Johns Hopkins University. Both cell lines were cultured in McCoy's 5A medium (Gibco, USA) containing 10% FBS, 100 units/ml penicillin, and 100 μg/ml streptomycin at 37 °C in a humidified incubator containing 5% CO2. Cell viability was measured using a Cell Counting Kit-8 (CCK-8) (Dojindo, Kumamoto, Japan) according to the manufacturer's instructions. In brief, the cells (5 × 10^3 cells/well in […] medium) were cultured for 24 h in 96-well microplates in a humidified 5% CO2 incubator at 37 °C and then treated with varying concentrations of compounds or 0.1% DMSO vehicle control.
# HCT116 p53^+/+ cells = assay: Cell viability assay (CCK-8); type: cell-based, human; conditions: CCK-8, 72 h incubation, absorbance 450 nm; read-out: IC50 (μM) HCT116 p53^+/+
# Procedure: as §1
# [1] = α-Helicity by CD spectroscopy; type: physicochemical; conditions: PB pH 7.2, 10-50 µM peptide, 20°C, calculated from [θ]222
# Procedure: Peptides were dissolved in PB (pH = 7.2) to concentrations ranging from 10 to 50 µM. CD spectra were obtained on a Jasco J-715 spectropolarimeter at 20°C. The spectra were collected using a 0.1 cm path length quartz cuvette with the following measurement parameters: wavelength, 185-255 nm; step resolution, 0.1 nm; speed, 20 nm/min; accumulations, 6; bandwidth, 1 nm. The helical content of each peptide was calculated as reported previously.
# ^25-109MDM2 = molecular target: T1, ^25-109MDM2 (Homo sapiens, UniProt Q00987); assay: FP-based competitive binding assay; conditions: MDM2 40 nM, fluorescently tagged p53 peptide 20 nM, PBS pH 7.4, 30 min room temperature; mean of three independent measurements
# T1 construct: established using ^25-109MDM2, ^24-108MDMX
# Procedure: (§2) An FP-based competitive or binding assay was established using ^25-109MDM2, ^24-108MDMX, and a fluorescently tagged p53-derived peptide as previously described. [34]-[36] For dose-dependent competitive binding experiments, MDM2 or MDMX protein (40 nM) was first incubated with TAMRA-p53 peptide (20 nM) in PBS (pH 7.4) on a Costar 96-well plate, to which a serially diluted solution of test peptide was added to a final volume of 125 μL. After 30 min of incubation at room temperature, the FP values were measured at λex = 530 nm and λem = 580 nm on a Tecan Infinite M1000 plate reader. For binding experiments, FITC-labeled SPMI-HIF2-1 (20 nM) was incubated with different concentrations of MDM2, MDMX, and VHL proteins. Curve fitting was performed using GraphPad Prism software, and Ki values were calculated as described previously. Three replicates and three independent experiments were performed.
# ^24-108MDMX = molecular target: T2, ^24-108MDMX (Homo sapiens, UniProt O15151); assay: FP-based competitive binding assay; conditions: MDMX 40 nM, fluorescently tagged p53 peptide 20 nM, PBS pH 7.4, 30 min room temperature; mean of three independent measurements
# T2 construct: ^24-108MDMX, and a fluorescently tagged p53-derived peptide
# T2 sequence (O15151 24-108): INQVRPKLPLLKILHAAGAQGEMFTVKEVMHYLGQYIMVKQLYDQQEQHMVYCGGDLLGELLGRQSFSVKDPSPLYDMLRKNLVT
# Procedure: as §2
# Pharmacokinetic study = type: in vivo; conditions: mouse, iv, male ICR mice, 1.8 mg/kg single i.v. tail vein, plasma, UPLC-ESI-QqQ-MS, n = 5
# Procedure: The peptides (1.8 mg/kg) were individually dosed in mice intravenously via tail vein injection and the blood samples were collected from the orbital venous plexus at 0, 0.5, 1, 2, 4, 6, 10, 24, and 48 h. All blood samples were centrifuged at 3000 rpm for 10 min, and the obtained plasma samples were immediately frozen at -80 °C until use. The standard curve was established as follows: Stock solutions of PMI-HIF1-1 and SPMI-HIF2-1 dissolved in acetonitrile were spiked into control plasma at final concentrations of 4000, 2000, 1000, 500, 250, 125, 62.5, 31.25, 15.625, 7.8125, 3.90625, 1.953125, and 0.9765625 ng/ml. […] Plasma samples (30 μL) were treated with 90 μL acetonitrile for protein precipitation. Then all samples were vortexed for 2 min and centrifuged for 15 min at 13000 rpm and 4°C. The supernatants were analyzed by ultraperformance liquid chromatography-electrospray ionization-tandem triple quadrupole mass spectrometry (UPLC-ESI-QqQ-MS, Shimadzu 8040). The system was equipped with an XBridge BEH C18 column (2.5 μm, 2.1×100 mm; Waters, Milford, MA, USA). The column temperature was set at 35°C. The injection volume was 4 μl. […] The plasma concentration at each time point was calculated from the extracted peak area of the same mass peaks of each peptide using the corresponding standard curve.
# circular dichroism = conditions: phosphate buffer (PB); pH 7.2; 20 °C; 10-50 uM
smiles,measurement,setting,value
CC(=O)N[C@H](C(=O)N[C@@H](CO)C(=O)N[C@@H](Cc1ccccc1)C(=O)N[C@@H](C)C(=O)N[C@@H](CCC(=O)O)C(=O)N[C@@H](Cc1ccc(O)cc1)C(=O)N[C@@H](Cc1c[nH]c2ccccc12)C(=O)N[C@@H](C)C(=O)N[C@@H](CC(C)C)C(=O)N[C@@H](CC(C)C)C(=O)N[C@@H](CO)C(=O)NCCOCC(=O)N[C@@H](CC(C)C)C(=O)N[C@@H](C)C(=O)N1C[C@H](O)C[C@H]1C(=O)N[C@@H](Cc1ccc(O)cc1)C(=O)N[C@@H](CCC(C)C)C(=O)N1CCC[C@H]1C(N)=O)[C@@H](C)O [PMI-HIF1-1],"metabolised at 10 min, 1 mM",α-Chymotrypsin,> 80%
same,IC50,HCT116 p53^-/- cells,> 100 µM
same,IC50,HCT116 p53^+/+ cells,> 100 µM
same,α-helicity (%),[1],17%
same,pKi,^25-109MDM2,6.35
same,pKi,^24-108MDMX,6.54 and 6.21
same,Cmax,Pharmacokinetic study; mean,14.7 µg/mL
same,AUC(0-inf),Pharmacokinetic study,8.6 µg·h/mL
same,MRT,Pharmacokinetic study,0.7 h
same,half-life,Pharmacokinetic study; read-out: half-life (t1/2) (converted),1.3 h
same,helicity,circular dichroism,17%
